Results on two compounds are retold here after US9561231B2 (AbbVie Inc., priority 2012, dated 2017).

As usually defined, the Ki is the equilibrium dissociation constant of an inhibitor or competing ligand from its target.

Experiment [1] deals with T1, first (BD1: amino acids K57-E168) bromodomain of BRD4 (Homo sapiens, UniProt O60885).
T1 construct: His-tagged first (BD1: amino acids K57-E168)
Nature of the experiment: TR-FRET bromodomain binding assay, BRD4 BD1. The note with it: TR-FRET assay protocol (A-G, compound concentration range); Ki calculated from IC50, probe Kd and probe concentration; read-out: TR-FRET Binding Ki: BRD4 (BDI_K57-E168). The method, boiled down:
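His-tagged BRD4 bromodomain competed against an Alexa647-labeled BET-inhibitor probe by TR-FRET in 20 mM sodium phosphate pH 6.0, 50 mM NaCl, 1 mM EDTA, 0.01% Triton X-100, 1 mM DTT.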

The test system of the next experiment is DLD-1. The experiment can be described thus: Proliferation panel assay: DLD-1. The note with it: Homo sapiens, 120 h; DLD-1 (Colon); 5 days, Cell Titer Glo; read-out: Cellular Proliferation EC50. Type of experiment: cell-based. For orientation: In ATP-based viability assays light output follows the ATP content of the culture.
The test system of a further experiment is OPM2. The experiment can be described thus: Proliferation panel assay: OPM2. Type of experiment: cell-based. As to conditions: Homo sapiens, OPM-2, 120 h; OPM2 (Multiple Myeloma); 5 days, Cell Titer Glo; read-out: Cellular Proliferation EC50.
A further experiment concerns Ly18. The experiment can be described thus: Proliferation panel assay: Ly18. Type of experiment: cell-based. As to conditions: 120 h; Ly18 (NHL); 5 days, Cell Titer Glo; read-out: Cellular Proliferation EC50.
For another experiment, the system named is Ramos. Nature of the experiment: Proliferation panel assay: Ramos. As to conditions: Homo sapiens, 120 h; Ramos (NHL); 5 days, Cell Titer Glo; read-out: Cellular Proliferation EC50. Type of experiment: cell-based.
For another experiment, the system named is H1975. Nature of the experiment: Proliferation panel assay: H1975. Type of experiment: cell-based. As to conditions: Homo sapiens, NCI-H1975, 120 h; H1975 (NSCLC); 5 days, Cell Titer Glo; read-out: Cellular Proliferation EC50.
For the next experiment, the system named is HPAC. The experiment can be described thus: Proliferation panel assay: HPAC. As to conditions: Homo sapiens, 120 h; HPAC (Pancreas); 5 days, Cell Titer Glo; read-out: Cellular Proliferation EC50. Format: cell-based.
Another experiment concerns 786-0. The experiment can be described thus: Proliferation panel assay: 786-0. The note with it: Homo sapiens, 120 h; 786-0 (RCC); 5 days, Cell Titer Glo; read-out: Cellular Proliferation EC50. Format: cell-based.
The test system of experiment [2] is LPS induced IL-6 production. Nature of the experiment: LPS (lipopolysaccharide) induced IL-6 production mouse assay. As to conditions: 30 mg/kg oral, 1 h before LPS 2.5 mg/kg i.p.; serum IL-6 2 h after LPS; p<0.05.
Method: Severe combined immunodeficient female mice (5 per group) received an intraperitoneal challenge of lipopolysaccharide (2.5 mg/kg, L2630 E. coli 0111:B4) one hour after oral administration of compounds. Mice were euthanized 2 hours after lipopolysaccharide injection, blood was removed by cardiac puncture, and then the serum harvested from the blood samples was frozen at −80° C. On the day of the assay the serum samples were brought to room temperature and then diluted 1:20 in phosphate-buffered saline containing 2% bovine serum albumin. Interleukin-6 measurements were performed using a cytokine assay from Meso Scale Discovery (Gaithersburg, Md.) for mouse serum analysis according to the manufacturer's protocol and read on a SECTOR Imager 6000 (Meso Scale Discovery, Gaithersburg, Md.) instrument. Statistical analysis was performed using Prism software (version 5.0) incorporating Dunnett's one way ANOVA. The IL-6 mean and standard deviation of the group of vehicle treated animals were compared with the IL-6 mean and standard deviation of the group treated with drug. A p value <0.05 means that there is less than a 5% probability that the mean values in the two groups are equal.

`Cn1cc(-c2cc(NS(C)(=O)=O)ccc2Oc2ccccc2)ccc1=O` [Example 224, N-[3-(1-methyl-6-oxo-1,6-dihydropyridin-3-yl)-4-phenoxyphenyl]methanesulfonamide]: the Ki in [1] was 48.2 nM. The EC50 turned out to be 850 nM in the experiment on DLD-1; 50 nM in the experiment with OPM2; 520 nM with Ly18; 370 nM in the experiment on Ramos; 380 nM in the experiment with H1975; 380 nM in the experiment on HPAC. The EC50 in the experiment with 786-0 came out at 273 nM.
Turning to `Cc1cc(-c2cc(NS(C)(=O)=O)ccc2Oc2ccccc2)c[nH]c1=O` [Example 261, N-[3-(5-methyl-6-oxo-1,6-dihydropyridin-3-yl)-4-phenoxyphenyl]methanesulfonamide], the Ki in [1] is 25.9 nM. In addition, the EC50 is 620 nM in the experiment on DLD-1; 55 nM with OPM2; 510 nM in the experiment on Ly18; 390 nM with Ramos; 470 nM with H1975; 500 nM in the experiment with HPAC. Further, the EC50 in the experiment on 786-0 amounted to 250 nM. Moreover, the “Inhibition of LPS induced IL-6 production, % inhibition” value in [2] is 42.2 @ 30 mg/kg %.
